Test results published in patent publication US10435401B2, “Pesticidally active tetracyclic derivatives with sulphur containing substituents” (Syngenta Participations AG, priority 2014, dated 2019).

Tests used:
Format in all cases: in vivo
[1] = tested on: Diabrotica balteata (Corn Root Worm); assay: Diabrotica balteata feeding/contact activity; conditions: 96 h, application rate of 200 ppm, L2 larvae on sprayed maize sprouts, 4 days after infestation
Procedure: Example B2: Diabrotica balteata (Corn Root Worm): Feeding/Contact Activity
Maize sprouts, placed on an agar layer in 24-well microtiter plates were treated with aqueous test solutions prepared from 10′000 ppm DMSO stock solutions by spraying. After drying, the plates were infested with L2 larvae (6 to 10 per well). The samples were assessed for mortality and growth inhibition in comparison to untreated samples 4 days after infestation.

[2] = tested on: Myzus persicae (Green Peach Aphid); assay: Myzus persicae intrinsic activity; conditions: 120 h, test rate of 12 ppm, compound in sucrose solution under Parafilm, 5 days after infestation
From the text: Example B7: Myzus persicae (Green Peach Aphid): Intrinsic Activity
Test compounds from 10′000 ppm DMSO stock solutions were applied by pipette into 24-well microtiter plates and mixed with sucrose solution. The plates were closed with a stretched Parafilm. A plastic stencil with 24 holes was placed onto the plate and infested pea seedlings were placed directly on the Parafilm. The infested plate was closed with a gel blotting paper and another plastic stencil and then turned upside down. The samples were assessed for mortality 5 days after infestation.

[3] = tested on: Tetranychus urticae (Two-Spotted Spider Mite); assay: Tetranychus urticae feeding/contact activity; conditions: foliar, 192 h, application rate of 200 ppm, mite population of mixed ages (mobile stages) on sprayed bean leaf discs, 8 days after infestation
Procedure: Example B11: Tetranychus urticae (Two-Spotted Spider Mite):Feeding/Contact Activity
Bean leaf discs on agar in 24-well microtiter plates were sprayed with aqueous test solutions prepared from 10′000 ppm DMSO stock solutions. After drying the leaf discs were infested with a mite population of mixed ages. The samples were assessed for mortality on mixed population (mobile stages) 8 days after infestation.

[4] = tested on: Spodoptera littoralis (Egyptian Cotton Leaf Worm); assay: Spodoptera littoralis feeding/contact activity; conditions: foliar, 72 h, application rate of 200 ppm, L1 larvae on sprayed cotton leaf discs, 3 days after infestation, read-out: control (at least one of mortality, anti-feedant effect, growth inhibition)
Procedure: Example B9: Spodoptera littoralis (Egyptian Cotton Leaf Worm): Feeding/Contact Activity
Cotton leaf discs were placed on agar in 24-well microtiter plates and sprayed with aqueous test solutions prepared from 10′000 ppm DMSO stock solutions. After drying the leaf discs were infested with five L1 larvae. The samples were assessed for mortality, anti-feedant effect, and growth inhibition in comparison to untreated samples 3 days after infestation. Control of Spodoptera littoralis by a test sample is when at least one of mortality, anti-feedant effect, and growth inhibition is higher than the untreated sample.

[5] = tested on: Myzus persicae (Green Peach Aphid); assay: Myzus persicae feeding/contact activity; conditions: foliar, 144 h, application rate of 200 ppm, aphid population of mixed ages on sprayed sunflower leaf discs, 6 days after infestation
Procedure: Example B5: Myzus persicae (Green Peach Aphid): Feeding/Contact Activity
Sunflower leaf discs were placed on agar in a 24-well microtiter plate and sprayed with aqueous test solutions prepared from 10′000 ppm DMSO stock solutions. After drying, the leaf discs were infested with an aphid population of mixed ages. The samples were assessed for mortality 6 days after infestation.

[6] = tested on: Frankliniella occidentalis (Western Flower Thrips); assay: Frankliniella occidentalis feeding/contact activity; conditions: foliar, 168 h, application rate of 200 ppm, population of mixed ages on sprayed sunflower leaf discs, 7 days after infestation
Procedure: Example B4: Frankliniella occidentalis (Western Flower Thrips): Feeding/Contact Activity
Sunflower leaf discs were placed on agar in 24-well microtiter plates and sprayed with aqueous test solutions prepared from […] stock solutions. After drying the leaf discs were infested with a Frankliniella population of mixed ages. The samples were assessed for mortality 7 days after infestation.

[7] = tested on: Spodoptera littoralis (Egyptian Cotton Leaf Worm); assay: Spodoptera littoralis systemic activity; conditions: 144 h, test rate of 12.5 ppm, compound in agar taken up by lettuce roots, 6 days after infestation, read-out: effect in at least one of the three categories (mortality, anti-feedancy, or growth inhibition)
Procedure: Example B10: Spodoptera littoralis (Egyptian Cotton Leaf Worm): Systemic Activity
Test compounds were applied by pipette from 10′000 ppm DMSO stock solutions into 24-well plates and mixed with agar. […] […] […] Spodoptera eggs were pipetted through a plastic stencil on a humid gel blotting paper and the plate closed with it. The samples were assessed for mortality, anti-feedant effect and growth inhibition in comparison to untreated samples 6 days after infestation.

[8] = tested on: Plutella xylostella (Diamond Back Moth); assay: Plutella xylostella feeding/contact activity; conditions: 120 h, application rate of 200 ppm, L2 larvae on treated artificial diet, 5 days after infestation, read-out: effect in at least one of the two categories (mortality or growth inhibition)
Procedure: Example B8: Plutella xylostella (Diamond Back Moth): Feeding/Contact Activity
24-well microtiter plates with artificial diet were treated with aqueous test solutions prepared from 10′000 ppm DMSO stock solutions by pipetting. After drying, the plates were infested with L2 larvae (10 to 15 per well). The samples were assessed for mortality and growth inhibition in comparison to untreated samples 5 days after infestation.

[9] = tested on: Aedes aegypti (Yellow Fever Mosquito); assay: whole plant or invertebrate; conditions: 48 h, test rate of 5 ppm, L2 larvae in 96-well plates, 2 days incubation, read-out: effect in at least one of the two categories (mortality or growth inhibition)
Procedure: Example B12: Aedes aegypti (Yellow Fever Mosquito): Feeding Contact Activity
10 to 15 Aedes larvae (L2) together with a nutrition mixture were placed in 96-well microtiter plates. Test compounds were pipetted into the wells. After an incubation period of 2 days insects were assessed for mortality and growth inhibition.

[10] = tested on: Bemisia tabaci (Cotton White Fly); assay: Bemisia tabaci feeding/contact activity; conditions: foliar, 144 h, application rate of 200 ppm, adult white flies on sprayed cotton leaf discs, 6 days after incubation
Procedure: Example B1: Bemisia tabaci (Cotton White Fly): Feeding/Contact Activity
Cotton leaf discs were placed on agar in 24-well microtiter plates and sprayed with aqueous test solutions prepared from 10′000 ppm DMSO stock solutions. After drying the leaf discs were infested with adult white flies. The samples were checked for mortality 6 days after incubation.

[11] = tested on: Myzus persicae (Green Peach Aphid); assay: Myzus persicae systemic activity; conditions: 144 h, test rate of 24 ppm, roots of infested pea seedlings in test solution, 6 days
Procedure: Example B6: Myzus persicae (Green Peach Aphid): Systemic Activity
Roots of pea seedlings infested with an aphid population of mixed ages were placed directly in the aqueous test solutions prepared from 10′000 ppm DMSO stock solutions. The samples were assessed for mortality 6 days after placing seedlings in test solutions.

[12] = tested on: Euschistus heros (Neotropical Brown Stink Bug); assay: Euschistus heros feeding/contact activity; conditions: 120 h, application rate of 200 ppm, N-2 nymphs on sprayed soybean leaf, 5 days after infestation, read-out: effect in at least one of the two categories (mortality or growth inhibition)
Procedure: Example B3: Euschistus heros (Neotropical Brown Stink Bug): Feeding/Contact Activity
Soybean leaf on agar in 24-well microtiter plates were sprayed with aqueous test solutions prepared from 10′000 ppm DMSO stock solutions. After drying the leaf were infested with N-2 nymphs. The samples were assessed for growth inhibition in comparison to untreated samples 5 days after infestation.

CCS(=O)(=O)c1cc(C(F)(F)F)cnc1-c1nc2cc(C3(C#N)CCC3)cnc2n1C [Compound P3, 1-[2-[3-ethylsulfonyl-5-(trifluoromethyl)-2-pyridyl]-3-methyl-imidazo[4,5-b]pyridin-6-yl]cyclobutanecarbonitrile]
≥ 80%: mortality at 200 ppm [1]

CCS(=O)(=O)c1cc(C(F)(F)F)cnc1-c1nc2cc(C3CC3)cnc2n1C [Compound P1, 6-cyclopropyl-2-[3-ethylsulfonyl-5-(trifluoromethyl)-2-pyridyl]-3-methyl-imidazo[4,5-b]pyridine]
≥ 80%: mortality at 12 ppm [2]

CCS(=O)(=O)c1cc(C(F)(F)F)cnc1-c1nc2cc(C3CC3C#N)cnc2n1C (stereo not drawn) [Compound P4, 2-[2-[3-ethylsulfonyl-5-(trifluoromethyl)-2-pyridyl]-3-methyl-imidazo[4,5-b]pyridin-6-yl]cyclopropanecarbonitrile]
≥ 80%: mortality at 200 ppm [3]

CCS(=O)(=O)c1cc(C(F)(F)F)cnc1-c1nc2cc(C3CC3(C)C#N)cnc2n1C (stereo not drawn) [Compound P5, 2-[2-[3-ethylsulfonyl-5-(trifluoromethyl)-2-pyridyl]-3-methyl-imidazo[4,5-b]pyridin-6-yl]-1-methyl-cyclopropanecarbonitrile]
≥ 80%: percent control (mortality, anti-feedant effect or growth inhibition) at 200 ppm [4]

CCS(=O)(=O)c1cc(C(F)(F)F)cnc1-c1nc2cc(C3(C#N)CC3)cnc2n1C [Compound P2, 1-[2-[3-ethylsulfonyl-5-(trifluoromethyl)-2-pyridyl]-3-methyl-imidazo[4,5-b]pyridin-6-yl]cyclopropanecarbonitrile]
≥ 80%: mortality at 200 ppm [5] | mortality at 200 ppm [6] | percent control (mortality, anti-feedant effect or growth inhibition) at 200 ppm [4] | percent control (mortality, anti-feedancy or growth inhibition) at 12.5 ppm [7] | percent effect (mortality or growth inhibition) at 200 ppm [8] | percent effect (mortality or growth inhibition) at 5 ppm [9] | mortality at 200 ppm [10] | mortality at 12 ppm [2] | mortality at 200 ppm [1] | mortality at 24 ppm [11]

CCS(=O)(=O)c1cc(C(F)(F)F)cnc1-c1nc2cc(C3CC3)cnc2n1C [Compound P6]
≥ 80%: mortality at 200 ppm [5] | percent control (mortality, anti-feedant effect or growth inhibition) at 200 ppm [4] | percent control (mortality, anti-feedancy or growth inhibition) at 12.5 ppm [7] | percent effect (mortality or growth inhibition) at 200 ppm [12] | percent effect (mortality or growth inhibition) at 200 ppm [8] | mortality at 200 ppm [1] | mortality at 24 ppm [11]
